Patent US20230293801A1, “Flow Electroporator Device For Therapeutic Targeting Of Circulating Tumor Cells During Hemodialysis” (ROSEMAN UNIVERSITY OF HEALTH SCIENCES, priority 2022, published 2023)

Experiments:
Type in all cases: cell-based
[1] = test system: HeLa cells; assay: Cell cycle analysis by flow cytometry and propidium iodide staining of chromosomal DNA; conditions: HeLa cells as mocked CTCs, 40 nM doxorubicin for 24 hrs
Protocol: (§1) FIGS. 6A-G show drug delivery via electroporation. […] Cell cycle analysis is performed using flow cytometry and propidium iodide staining of chromosomal DNA. […] Error bars are standard deviation of triplicate experiments. Asterisk indicates p-value≤0.01 versus untreated control. FIGS. 6D-G show increased delivery of doxorubicin into HeLa cells via electroporation. […] Data are normalized to 1 for doxorubicin fluorescence of HeLa cells incubated with 40 nM doxorubicin without electroporation. Error bars are standard deviation of triplicate experiments. Asterisk indicates p-value≤0.01 versus no electroporation.
(§2) Another utility of the flow electroporator device is drug delivery during hemodialysis. Due to the unique cancer hallmarks of CTCs, many chemotherapeutic agents can be used for their selective targeting. […] Electroporation by the flow electroporator device enhanced doxorubicin uptake by CTCs by more than 4 fold (FIG. 6D-G). An advantage of drug delivery during hemodialysis is the subsequent removal of excess chemotherapeutic agents, thereby minimizing unnecessary side effects to cancer patients.

[2] = test system: HeLa cells; assay: Doxorubicin uptake by flow cytometry of doxorubicin fluorescence, with and without the flow electroporator device; conditions: HeLa cells in EMEM, 40 nM doxorubicin, 500 ml/min, 300 V/cm, 200 V/cm, normalized to no electroporation
Protocol: as §1, §2

[3] = test system: HeLa cells; assay: Confocal fluorescence imaging of intracellular lipid droplets in cells incubated with blood plasma; conditions: blood plasma and 10 μM A922500 for 24 hrs
Protocol: (§3) FIGS. 7A-H show A922500, a DGAT1 inhibitor, reduces the viability of CTCs in blood plasma. […] Cell viability is assayed with crystal violet staining and visualized at low resolution (left column) and high resolution (right column). […] Error bars are standard deviation of triplicate experiments. Asterisk indicates p-value≤0.01 versus culturing in EMEM medium. […] Control HeLa cells cultured in EMEM medium is presented in the top panel. HeLa cells incubated with blood plasma for 24 hrs is presented in the bottom panel. […] Images are control untreated HeLa cells cultured with EMEM medium (first panel); HeLa cells cultured in EMEM medium and treated with 10 μM A922500, a small-molecule inhibitor of diacylglycerol O-acyltransferase 1 (DGAT1), for 24 hrs (second panel); HeLa cells incubated with blood plasma for 24 hrs (third panel); and HeLa cells incubated with blood plasma and 10 μM A922500 for 24 hrs (fourth panel). FIGS. 7F-H show viability of HeLa cells following incubation with blood plasma or blood plasma and A922500. Cell viability is assayed with crystal violet staining and visualized at low resolution (FIG. 7F) and high resolution (FIG. 7G). […] Error bars are standard deviation of triplicate experiments. Single asterisk indicates p-value≤0.01 versus untreated control HeLa cells cultured with EMEM. […]

[4] = test system: HeLa cells; assay: Cell viability by crystal violet staining after incubation with blood plasma and A922500; conditions: blood plasma and A922500, versus blood plasma alone for 24 hrs
Protocol: as §3

SMILES	effect on cell cycle of CTCs [1]	enhancement of doxorubicin uptake by CTCs by electroporation [2]	lipid droplet accumulation in CTCs incubated with blood plasma [3]	viability of CTCs in blood plasma [4]
COc1cccc2c1C(=O)c1c(O)c3c(c(O)c1C2=O)C[C@@](O)(C(=O)CO)C[C@@H]3O[C@H]1C[C@H](N)[C@H](O)[C@H](C)O1 [doxorubicin]	cell cycle arrest	more than 4 fold		
O=C(Nc1ccccc1)Nc1ccc(-c2ccc(C(=O)[C@@H]3CCC[C@H]3C(=O)O)cc2)cc1 [A922500]			inhibited lipid droplet accumulation	further reduced the viability
